Results published in the NIST ThermoML archive (doi:10.1021/acs.jced.7b00650).

Settings: Liquid; for viscosity: Capillary tube (Ostwald / Ubbelohde) method; for mass density: Vibrating tube method

CCCCCCCCCCCC [dodecane]
Settings | mass density [kg/m3] | viscosity [mPa·s]
293.21 K, 2007 kPa | 750.58 | 1.522
293.21 K, 3977 kPa | 752.18 | 1.56
293.21 K, 5979 kPa | 753.71 | 1.599
293.21 K, 7982 kPa | 755.06 | 1.639
293.21 K, 12987 kPa | 758.27 | 1.74
293.21 K, 29985 kPa | 768.5 | 2.106
293.22 K, 9987 kPa | 756.38 | 1.679
293.22 K, 15986 kPa | 760.07 | 1.801
293.22 K, 18994 kPa | 761.82 | 1.865
293.22 K, 21995 kPa | 763.63 | 1.929
293.22 K, 24987 kPa | 765.5 | 1.994
293.22 K, 27987 kPa | 767.37 | 2.061
313.1 K, 1990 kPa | 736.16 | 1.089
313.1 K, 4017 kPa | 737.72 | 1.116
313.1 K, 6016 kPa | 739.14 | 1.143
313.1 K, 8014 kPa | 740.64 | 1.171
313.1 K, 10011 kPa | 742.11 | 1.199
313.1 K, 13007 kPa | 744.26 | 1.241
313.1 K, 16011 kPa | 746.36 | 1.283
313.1 K, 19017 kPa | 748.61 | 1.326
313.1 K, 22017 kPa | 750.69 | 1.37
313.1 K, 25019 kPa | 752.63 | 1.414
313.1 K, 28017 kPa | 754.52 | 1.458
313.1 K, 30020 kPa | 755.75 | 1.489
333 K, 3976 kPa | 723.61 | 0.8436
333.01 K, 2024 kPa | 721.82 | 0.823
333.01 K, 5981 kPa | 725.32 | 0.8643
333.01 K, 7987 kPa | 726.99 | 0.885
333.01 K, 10019 kPa | 728.35 | 0.9059
333.01 K, 13016 kPa | 730.73 | 0.9374
333.01 K, 16014 kPa | 733.04 | 0.9691
333.01 K, 19018 kPa | 735.29 | 1.001
333.01 K, 22015 kPa | 737.46 | 1.033
333.01 K, 25018 kPa | 739.58 | 1.066
333.01 K, 28015 kPa | 741.65 | 1.099
333.01 K, 30024 kPa | 742.99 | 1.121
353.12 K, 2000 kPa | 706.86 | 0.6433
353.12 K, 3991 kPa | 708.83 | 0.6598
353.12 K, 5996 kPa | 710.75 | 0.6763
353.12 K, 8009 kPa | 712.81 | 0.6929
353.12 K, 10014 kPa | 714.63 | 0.7095
353.12 K, 13006 kPa | 717.28 | 0.7344
353.12 K, 16007 kPa | 719.83 | 0.7594
353.12 K, 19003 kPa | 722.16 | 0.7845
353.12 K, 22006 kPa | 724.55 | 0.8098
353.12 K, 25008 kPa | 726.87 | 0.8352
353.12 K, 28011 kPa | 729.13 | 0.8607
353.12 K, 30007 kPa | 730.59 | 0.8778

CCCCCCCC [octane]
Settings | mass density [kg/m3] | viscosity [mPa·s]
293.21 K, 1996 kPa | 703.76 | 0.5512
293.21 K, 8004 kPa | 709.25 | 0.5874
293.21 K, 13010 kPa | 713.21 | 0.6183
293.21 K, 30002 kPa | 725.54 | 0.7285
293.22 K, 3994 kPa | 705.71 | 0.5631
293.22 K, 6001 kPa | 707.57 | 0.5752
293.22 K, 10009 kPa | 710.88 | 0.5997
293.22 K, 16009 kPa | 715.43 | 0.6371
293.22 K, 19011 kPa | 717.57 | 0.6566
293.22 K, 22012 kPa | 719.76 | 0.6759
293.22 K, 25004 kPa | 721.88 | 0.6954
293.22 K, 28004 kPa | 724.19 | 0.7152
313.1 K, 5999 kPa | 692.07 | 0.4593
313.1 K, 19006 kPa | 703.5 | 0.5234
313.1 K, 21998 kPa | 706.05 | 0.5385
313.1 K, 25000 kPa | 708.39 | 0.5539
313.1 K, 27998 kPa | 710.67 | 0.5694
313.1 K, 30001 kPa | 712.15 | 0.5798
313.11 K, 2007 kPa | 688.27 | 0.4402
313.11 K, 4000 kPa | 690.26 | 0.4497
313.11 K, 7997 kPa | 693.85 | 0.469
313.11 K, 10009 kPa | 695.59 | 0.4788
313.11 K, 13005 kPa | 698.26 | 0.4935
313.11 K, 16009 kPa | 700.84 | 0.5083
333 K, 22003 kPa | 691.91 | 0.4414
333.01 K, 2005 kPa | 672.19 | 0.3601
333.01 K, 3993 kPa | 674.49 | 0.3681
333.01 K, 5998 kPa | 676.69 | 0.3761
333.01 K, 8014 kPa | 678.82 | 0.3841
333.01 K, 10007 kPa | 680.8 | 0.3921
333.01 K, 13004 kPa | 683.6 | 0.4043
333.01 K, 16002 kPa | 686.47 | 0.4166
333.01 K, 19006 kPa | 689.24 | 0.4289
333.01 K, 25006 kPa | 694.49 | 0.4539
333.01 K, 28003 kPa | 696.99 | 0.4666
333.01 K, 30012 kPa | 698.61 | 0.4751
353.12 K, 2008 kPa | 655.38 | 0.2974
353.12 K, 3999 kPa | 657.99 | 0.3043
353.12 K, 6000 kPa | 660.5 | 0.3112
353.12 K, 8001 kPa | 663.11 | 0.3181
353.12 K, 10006 kPa | 665.45 | 0.325
353.12 K, 19000 kPa | 674.99 | 0.3563
353.12 K, 22003 kPa | 677.96 | 0.3669
353.12 K, 25005 kPa | 680.81 | 0.3775
353.12 K, 28008 kPa | 683.56 | 0.3882
353.12 K, 30004 kPa | 685.34 | 0.3954
353.13 K, 13003 kPa | 668.83 | 0.3354
353.13 K, 16004 kPa | 672.05 | 0.3458
